# In patent publication US20060281806A1, “Treatment and inhibition of disease conditions using flexible heteroarotinoids” (priority 2005, published 2006):
# Key:
# [1] = tested on: CC-1 human cervical cell line; assay: In vitro cytotoxicity (SRB growth inhibition) assay, CC-1; assay type: cell-based; parameters: dose or concentration left out as unconfirmed; conditions: 72 h
# Protocol: (§1) The SHetA2, SHetA3, SHetA4, SHet50 and 9-cis-RA compounds were evaluated in 4 cervical carcinoma cell lines. The SiHa, CC-1 and C33a human cervical cell lines were maintained in Minimal Essential Media (MEM) containing Earle's salts and L-glutamine supplemented with nonessential amino acids, 1% sodium pyruvate, 10% fetal bovine serum (FBS) and antibiotic/antimycotic. The HT-3 cervical carcinoma cell line was cultured in McCoy's 5a medium supplemented with 10% FBS and antibiotic/antimycotic. Cells were inoculated into 96 well microtiter plates at densities of 1000 cells/well and incubated for 24 h prior to addition of drugs. Drugs were dissolved in dimethyl sulfoxide (DMSO) and diluted in complete medium, prior to addition to triplicate culture wells to achieve final concentrations of […]. Following drug addition, the plates were incubated for 72 h. The assay was terminated by the addition of cold TCA and the cells were stained with 0.4% sulforhodamine B (SRB) in 1% acetic acid. Bound stain was subsequently solubilized with 10 mM trizma base, and the absorbance was read on an automated plate reader at a wavelength of 560 nm. Growth inhibition was determined by dividing the average Optical Density (OD) of the triplicated treated cultures by the average OD of the triplicate control cultures treated with DMSO solvent only. This ratio was converted into a percentage by multiplying by 100. The potency (concentration required to induce half of the maximal activity—GI50) were derived from dose-response graphs generated with results from 3 to 5 individual experiments using GraphPad Software.
# Raldh2 −/− embryos = assay: Rescue of Raldh2 −/− embryos and teratogenesis; assay type: in vivo, mouse; conditions: for No. of −/− rescued / No. of −/− unrescued / Teratogenesis (no. of embryos): E10.25 embryos
# Protocol: Dosages varied from 0.025 to 25 mg/kg.
# [2] = tested on: C33a human cervical cell line; assay: In vitro cytotoxicity (SRB growth inhibition) assay, C33a; assay type: cell-based; parameters: dose or concentration left out as unconfirmed; conditions: 72 h
# Protocol: as §1
# [3] = tested on: HT-3 cervical carcinoma cell line; assay: In vitro cytotoxicity (SRB growth inhibition) assay, HT-3; assay type: cell-based, human; parameters: dose or concentration left out as unconfirmed; conditions: 72 h
# Protocol: as §1
# [4] = dose 2.5 mg/kg oral to pregnant mice
# [5] = dose 10 mg/kg oral to pregnant mice
# [6] = dose 25 mg/kg oral to pregnant mice
structure (smiles),measurement,setting,value
CC1(C)CC(C)(C)c2cc(NC(=S)Nc3ccc([N+](=O)[O-])cc3)ccc2S1 [SHetA2],Efficacy: percent growth inhibition relative to the untreated control,[1],58%
same,rescue of Raldh2 −/− embryos (phenotype),Raldh2 −/− embryos; 2.5 mg/kg to pregnant mothers,no rescue
same,rescue of Raldh2 −/− embryos (phenotype),Raldh2 −/− embryos; 10 or 25 mg/kg to pregnant mothers,no rescue
same,teratogenesis in litters,"Raldh2 −/− embryos; any dosage (2.5, 10, 25 mg/kg)",no teratogenesis was observed
same,No. of −/− rescued,Raldh2 −/− embryos; [4],0
same,No. of −/− unrescued,Raldh2 −/− embryos; [4],1
same,Teratogenesis (no. of embryos),Raldh2 −/− embryos; [4],0
same,No. of −/− rescued,Raldh2 −/− embryos; [5],0
same,No. of −/− unrescued,Raldh2 −/− embryos; [5],5
same,Teratogenesis (no. of embryos),Raldh2 −/− embryos; [5],0
same,No. of −/− rescued,Raldh2 −/− embryos; [6],0
same,No. of −/− unrescued,Raldh2 −/− embryos; [6],1
same,Teratogenesis (no. of embryos),Raldh2 −/− embryos; [6],0
same,Efficacy: percent growth inhibition relative to the untreated control,[2],87%
same,Efficacy: percent growth inhibition relative to the untreated control,[3],92%
